Values after ≈ are worked out from the molar mass of the structure shown. Where two headings read alike, the source gives them in different places.

Experiment [1] deals with S. aureus USA300. The experiment in a line: microbe, parasite or virus in culture. Type of experiment: cell-based, Staphylococcus aureus. To be noted: Staphylococcus aureus, MRSA / USA300; Table 14; read-out: MIC S. aureus USA300 (MRSA). In short, it runs like this: (§1)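 Broth microdilution: log-phase cultures in tryptic soy broth diluted to OD600 0.001, exposed to two-fold diluted peptides at 37° C overnight, growth read at 630 nm. Medium effects on S. aureus USA300 tested with up to 200 mM NaCl, 2 mM CaCl2, 5-10% human serum, mouse plasma, fluids or tissue homogenate supernatants.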

In another experiment the test system is E. faecium V286-17 (VRE). The experiment in a line: microbe, parasite or virus in culture. The experiment is classed as cell-based, Enterococcus faecium. To be noted: Enterococcus faecium, VRE, read-out: MIC E. faecium V286-17 (VRE). The method in brief:
as §1

The subject of another experiment is P. aeruginosa E411-17. The experiment in a line: microbe, parasite or virus in culture. The following applies: Pseudomonas aeruginosa, E41117; Table 14; read-out: MIC P. aeruginosa E411-17. The experiment is classed as cell-based, Pseudomonas aeruginosa. The method in brief: as §1
In a further experiment the test system is K. pneumoniae E406-17. Nature of the experiment: microbe, parasite or virus in culture. Type of experiment: cell-based, Klebsiella pneumoniae. The following applies: Klebsiella pneumoniae, E40617; Table 14; read-out: MIC K. pneumoniae E406-17. The method in brief:
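Broth microdilution in tryptic soy broth: log-phase cultures (OD600 ≈0.5) diluted to OD600 0.001, given two-fold peptide dilutions, incubated overnight at 37° C. Growth read at 630 nm.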

The next experiment has as its system E. coli E423-17. The experiment in a line: microbe, parasite or virus in culture. The experiment is classed as cell-based, Escherichia coli. To be noted: Escherichia coli, E42317; Table 14; read-out: MIC E. coli E423-17. In short, it runs like this:
as §1

In another experiment the test system is A. baumannii B26-16. Nature of the experiment: microbe, parasite or virus in culture. The experiment is classed as cell-based, Acinetobacter baumannii. The following applies: Acinetobacter baumannii, B2616; Table 14; read-out: MIC A. baumannii B26-16. In short, it runs like this:
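Broth microdilution in tryptic soy broth: log-phase cultures diluted to 0.001 OD600 and exposed to peptide dilutions overnight at 37 °C, growth read at 630 nm. For S. aureus USA300, medium effects tested at pH 6.8, 7.2 and 8.0, with 150 mM NaCl, or with 5–10% human serum, mouse plasma or peritoneal fluid.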

The subject of experiment [2] is K. pneumoniae E406-17 biofilms. The experiment in a line: Biofilm disruption and attachment. Type of experiment: cell-based, Klebsiella pneumoniae. On the procedure:
Briefly, S. aureus USA300 and K. pneumoniae E406-17 (10^5 CFU/mL) were prepared from exponentially phase. Each well of the microtiter plate (Corning Costar® Cat No. 3595) was aliquoted with 180 μL of inoculum and the plates were incubated at 37° C. for 48 hours to form biofilm. Culture treated with water served as a positive control while media without bacterial inoculation served as the negative control. Media was aspirated post incubation and the attached biofilms were washed with 1×PBS to remove the planktonic bacteria. Each well was aliquoted with 20 μL of 10× peptide solution and 180 μL of fresh TSB media, plates were further incubated at 37° C. for 24 hours. Media aspirated from the wells and washed with 1×PBS to remove planktonic cells. Live cells in the biofilms were quantitated using XTT [2,3-bis(2-methyloxy-4-nitro-5-sulfophenyl)-2H-tertazolium-5-carboxanilide] assay by following the manufacturer's instructions with modifications. 180 μL of fresh TSB and 20 μL of XTT solution was added to each well and the plates further incubated at 37° C. for 2 hours. Absorbance was read at 450 nm (only media with XTT containing wells served as the blank) using a Chromate® microtiter plate reader. Percentage biofilm growth for the peptide was plotted by assuming 100% biofilm growth in bacterial control alone. The data is mean±SD, the significance at […]. […]

For another experiment, the system named is S. aureus M838-17 (MRSA). The experiment in a line: microbe, parasite or virus in culture. Type of experiment: cell-based, Staphylococcus aureus. To be noted: Staphylococcus aureus, MRSA; Table 7; by weight; read-out: MIC S. aureus M838-17 (MRSA). In short, it runs like this: as §1
The subject of experiment [3] is clinical strains of methicillin-resistant and susceptible S. aureus. Nature of the experiment: microbe, parasite or virus in culture. The following applies: for MIC: Staphylococcus aureus. On the procedure:
The antibacterial activity of peptides was evaluated using a standard broth microdilution protocol with minor modifications (Mishra, et al. (2017) Acta Biomater., 49:316-328). In brief, logarithmic phase bacterial cultures (i.e., optical density at 600 nm≈0.5) were diluted to 0.001 OD and aliquoted 90 μL per well into a 96-well polystyrene microplate. Added 10 μL peptides per well with various concentrations, plates were incubated at 37° C., overnight. Post incubation the plates are read at 630 nm using a ChroMate® Microplate Reader (GMI). […] To study the influence of medium conditions on the antimicrobial activity of peptides against S. aureus USA300 at different pHs (6.8, 7.2, and 8.0), 150 mM sodium chloride (NaCl), 5-10% of human serum, mouse plasma, and peritoneal fluid were included into the assays.

The subject of experiment [4] is S. aureus USA300. The experiment is classed as cell-based, Staphylococcus aureus. On the procedure:
The experiment was carried out similar to the MIC determination with a few modifications (Ge, et al. (1999) Antimicrob. Agents Chemother., 43:782-788; Ling, et al. (2015) Nature 520:388). In short, an exponential phase S. aureus USA300 culture (i.e., optical density at 600 nm≈0.5) was diluted and partitioned into a 96-well polystyrene microplate with ˜10^5 colony forming units (CFU) per well (90 μL aliquots). After treatment with 10 μL of peptide or antibiotics solutions at various concentrations, microplates were incubated at 37° C. overnight and read on a ChroMate® 4300 Microplate Reader at 630 nm (GMI). […] Plots were made to determine the increase in the fold change (MIC on given passage/MIC recorded in first day of passage).
This experiment was performed similar to the MIC determination with a few modifications. […] After treatment with 10 μL of peptide or antibiotics solutions at various concentrations, microplates were incubated at 37° C. overnight and read on a ChroMate® Microplate Reader at 630 nm (GMI). […] The increase in the fold change (MIC on given passage/MIC recorded in first day of passage) used to determine the degree of drug resistance.

The subject of experiment [5] is S. aureus USA300 biofilms. To be noted: 48-hour biofilms.
Method: The antibiofilm activity of the peptide against 24 hours established biofilms was evaluated. In short, S. aureus USA300 (10^5 CFU/mL) was made from exponential phase bacteria in TSB media and 200 μL was distributed to each well of the microtiter plate (Corning Costar Cat No. 3595). The plates were incubated at 37° C. for 24 hours to form biofilm. Culture treated with water served as a positive control while media without bacterial inoculation served as the negative control. Media was then pipetted out and the attached biofilms were washed with 1×PBS to remove the planktonic bacteria. Each well of the plate was then filled with 20 μL of 10× peptide solution and 180 μL of fresh TSB media and the plates were further incubated at 37° C. for 24 hours. Media was then pipetted out and the wells were washed with 1×PBS to remove planktonic cells. Live cells in the biofilms were then quantitated using XTT [2,3-bis(2-methyloxy-4-nitro-5-sulfophenyl)-2H-tertazolium-5-carboxanilide] assay by following the manufacturer's instructions with modifications. 180 μL of fresh TSB and 20 μL of XTT solution was added to each well and the plates were again incubated at 37° C. for 2 hours. Absorbance at 450 nm (only media with XTT containing wells served as the blank) was obtained using a ChroMate® microtiter plate reader. […]

Turning to `C[C@@H](O)[C@H]1C(=O)N2C(C(=O)O)=C(S[C@@H]3CN[C@H](CNS(N)(=O)=O)C3)[C@H](C)[C@H]12` [Doripenem, reference compound], the MIC in the experiment on S. aureus USA300 [1] is 0.25 µM (≈ 0.105 µg/mL); in the experiment on E. faecium V286-17 (VRE) (Table 14), more than 8 µM; with P. aeruginosa E411-17 it was 2 µM (≈ 0.841 µg/mL); in the experiment on K. pneumoniae E406-17 it was 0.5 µM (≈ 0.21 µg/mL); in the experiment with E. coli E423-17 it was 1 µM (≈ 0.421 µg/mL); in the experiment on A. baumannii B26-16, more than 8 µM. The “Adhesion/attachment of K. pneumoniae” value in experiment [2] is reported as “showed no effect”. The “Effect on 48-hour preformed biofilms” value in [2] (48-hour biofilms) is reported as “showed no effect”.

Turning to `CCOc1ccc2ccccc2c1C(=O)N[C@@H]1C(=O)N2[C@@H]1SC(C)(C)[C@@H]2C(=O)O` [Nafcillin], the MIC in the experiment on S. aureus M838-17 (MRSA) is 0.78 to 1.56 µM (≈ 0.323 to 0.647 µg/mL); with E. faecium V286-17 (VRE) (Table 7) it was more than 12.5 µM; in experiment [3] (MSSA, strain B243-16 MSSA), less than 0.25 µM; in experiment [3] (MSSA, strain B254-16 MSSA), less than 0.25 µM; in experiment [3] (MSSA, strain B255-16 MSSA), less than 0.25 µM; in experiment [3] (MSSA, strain B262-16 MSSA), 0.5 µM (≈ 0.207 µg/mL). Besides, the MIC was 0.5 µM (≈ 0.207 µg/mL) in experiment [3] (MSSA, strain B269-16 MSSA); 0.25 µM (≈ 0.104 µg/mL) in experiment [3] (NEWMAN, strain Newman); more than 8 µM in experiment [3] (USA200, strain USA200); 0.5 µM (≈ 0.207 µg/mL) in [3] (USA300, strain USA300); 1 µM (≈ 0.414 µg/mL) in experiment [3] (USA400, strain USA400); 2 µM (≈ 0.829 µg/mL) in experiment [3] (strain M106-16). Further, the MIC in experiment [3] (strain M108-16) turned out to be 1 µM (≈ 0.414 µg/mL); in experiment [3] (strain M109-16) it was 1 µM (≈ 0.414 µg/mL); in experiment [3] (strain M111-16), 8 µM (≈ 3.32 µg/mL); in experiment [3] (strain M112-16), 0.5 µM (≈ 0.207 µg/mL); in experiment [3] (strain M113-16) it was 0.5 µM (≈ 0.207 µg/mL); in experiment [3] (strain M114-16), 0.5 µM (≈ 0.207 µg/mL). The MIC was less than 0.25 µM in experiment [3] (strain M116-16); 0.5 µM (≈ 0.207 µg/mL) in experiment [3] (strain M117-16); 0.5 µM (≈ 0.207 µg/mL) in [3] (strain M118-16); 1 µM (≈ 0.414 µg/mL) in [3] (strain M119-16); 2 µM (≈ 0.829 µg/mL) in [3] (strain M120-16); 1 µM (≈ 0.414 µg/mL) in [3] (strain M121-16). In addition, the MIC in experiment [3] (strain M122-16) is 1 µM (≈ 0.414 µg/mL); in [3] (strain M123-16), 4 µM (≈ 1.66 µg/mL); in experiment [3] (strain M126-16), 1 µM (≈ 0.414 µg/mL); in experiment [3] (strain M127-16), 2 µM (≈ 0.829 µg/mL); in [3] (strain M128-16) it was 8 µM (≈ 3.32 µg/mL); in experiment [3] (strain M129-16) it was 1 µM (≈ 0.414 µg/mL). The MIC is 1 µM (≈ 0.414 µg/mL) in [3] (strain M130-16), 4 µM (≈ 1.66 µg/mL) in [3] (strain UAMS-1) and more than 8 µM in experiment [3] (strain mu50). Moreover, the “Inhibition of Mu50 and USA200 strains” value in experiment [3] (nafcillin at 8 μM) is given as “did not inhibit”. The compound further gave an MIC increase with S. aureus USA300 [4] (after 16 passages, sub-MIC level) of 1000 fold. Moreover, the “Resistance development” value in the experiment on S. aureus USA300 [4] (multiple passage experiment) is “developed resistance”. In [5], the “Activity against 48-hour biofilms” value is given as “did not”.
